Measurements from patent US20210322582A1, “RADIOACTIVE IMIDAZOTHIADIAZOLE DERIVATIVE COMPOUND” (Nihon Medi-Physics Co., Ltd., priority 2018, published 2021).
Each block holds one compound with its values, some of them ahead of it.

Experiments:
Type in all cases: in vivo
MDA-MB-231 tumor [1] = experiment: SPECT/CT imaging using [^111In]ITDA1; details: MDA-MB-231 cancer-bearing mouse, 24 hours from administration
Procedure: HT-29 cells (5×10^6 cells/mouse) and MDA-MB-231 cells (5×10^6 cells/mouse) were subcutaneously inoculated into the left shoulders of 5-week old male BALB/c nude mice, respectively. A saline solution (150 μL) in which [^111In]ITDA1 (23.8 to 26.2 MBq) had been dissolved was administered to each of the cancer-bearing mice via the tail vein. Each of the mice was subjected to SPECT/CT imaging after the lapse of 1, 4, 8, and 24 hours from the administration. U-SPECT-II/CT (single-pinhole collimator 0.6 or 1.0 mm, resolution: 0.45 mm) manufactured by Milab was used as the SPECT/CT device, and data were collected for 60 minutes in 1, 4, 8, and 24 hours from the administration.
The collected data were reconstructed by a three-dimensional ordered-subset expectation maximization (3D-OSEM) method. The results of HT-29 cancer-bearing mouse are shown in FIG. 6A, and the results of MDA-MB-231 cancer-bearing mouse are shown in FIG. 6B.

MDA-MB-231 tumor [2] = experiment: Biodistribution of [^111In]ITDA2 in MDA-MB-231 tumor cancer-bearing mouse; details: MDA-MB-231 tumor mouse, 24 hours
Procedure: HT-29 cells (5×10^6 cells/mouse) and MDA-MB-231 cells (1×10^7 cells/mouse) were subcutaneously inoculated into the left shoulders of 5-week old male BALB/c nude mice, respectively, and the mice were used when the tumor diameter reached 6 to 10 mm. A saline solution (100 μL) in which [^111In]ITDA2 (40 kBq) had been dissolved was administered to each of the HT-29 tumor or MDA-MB-231 tumor cancer-bearing mice (n=5) via the tail vein. The HT-29 tumor cancer-bearing mice were slaughtered after the lapse of 1, 4, 8, and 24 hours from the administration, the MDA-MB-231 tumor cancer-bearing mouse was slaughtered after the lapse of 24 hours from the administration, and the blood, spleen, pancreas, stomach, intestines, kidney, liver, heart, lungs, brain, tumor, and muscle were recovered from each of the mice. The weight of each organ was measured, and the amount of radioactivity in each organ was measured by using a gamma counter. The accumulation of radioactivity in each organ except for stomach was expressed by % injected dose/g organ obtained by dividing the ratio of the amount of radioactivity of each organ to the administered amount of radioactivity by the organ weight. The stomach was expressed by % injected dose.

HT-29-transplanted tumor = experiment: Biodistribution of [^111In]ITDA3 in HT-29 cancer-bearing mouse; details: for Accumulation of radioactivity: Blood / Accumulation of radioactivity: Brain / Accumulation of radioactivity: HT-29 tumor / Accumulation of radioactivity: Heart / Accumulation of radioactivity: Intestines / Accumulation of radioactivity: Kidney / Accumulation of radioactivity: Liver / Accumulation of radioactivity: Lungs / Accumulation of radioactivity: Muscle / Accumulation of radioactivity: Pancreas / Accumulation of radioactivity: Spleen / Accumulation of radioactivity: Stomach / Tumor/blood / Tumor/muscle: HT-29 mouse
Procedure: HT-29 cells and MDA-MB-231 cells (5×10^6 cells/mouse) were subcutaneously inoculated into the left shoulders of 5-week old male BALB/c nude mice, respectively. A saline solution (100 μL) in which[^111In]ITDA3 (40 kBq) had been dissolved was administered to each of the cancer-bearing mice (n=5) via the tail vein. The HT-29 cancer-bearing mice were slaughtered after the lapse of 1, 4, and 24 hours from the administration, the MDA-MB-231 cancer-bearing mouse was slaughtered after the lapse of 24 hours from the administration, and the blood, spleen, pancreas, stomach, intestines, kidney, liver, heart, lungs, brain, HT-29 or MDA-MB-231-transplanted tumor, and muscle were recovered from each of the mice. The weight of each organ was measured, and the amount of radioactivity in each organ was measured by using a gamma counter. The accumulation of radioactivity in each organ except for stomach was expressed by % ID (injected dose)/g obtained by dividing the ratio of the amount of radioactivity of each organ to the administered amount of radioactivity by the organ weight. The stomach was expressed by % ID (injected dose).

- Accumulation in the transplanted tumor (SPECT/CT) (MDA-MB-231 tumor [1]): not observed
SMILES: NS(=O)(=O)c1nn2cc(-c3ccc(NC(=O)CN4CCN(CC(=O)O)CCN(CC(=O)O)CCN(CC(=O)O)CC4)cc3)nc2s1.[111In+3] [[^111In]ITDA1, [^111In]indium(III)2,2′,2″-(10-(2-oxo-2-((4-(2-sulfamoylimidazo[2,1-b][1,3,4]thiadiazol-6-yl)phenyl)amino)ethyl)-1,4,7,10-tetraazacyclododecan-1,4,7-triyl) triacetic acid]

- Biokinetics: Blood (MDA-MB-231 tumor [2]): 0.29 ± 0.04 % injected dose/g organ
- Biokinetics: Brain (MDA-MB-231 tumor [2]): 0.34 ± 0.07 % injected dose/g organ
- Biokinetics: Heart (MDA-MB-231 tumor [2]): 1.13 ± 0.19 % injected dose/g organ
- Biokinetics: Intestines (MDA-MB-231 tumor [2]): 9.15 ± 1.04 % injected dose/g organ
- Biokinetics: Kidney (MDA-MB-231 tumor [2]): 59.8 ± 4.04 % injected dose/g organ
- Biokinetics: Liver (MDA-MB-231 tumor [2]): 2.77 ± 0.45 % injected dose/g organ
- Biokinetics: Lungs (MDA-MB-231 tumor [2]): 1.70 ± 0.57 % injected dose/g organ
- Biokinetics: Muscle (MDA-MB-231 tumor [2]): 0.64 ± 0.06 % injected dose/g organ
- Biokinetics: Pancreas (MDA-MB-231 tumor [2]): 3.37 ± 0.28 % injected dose/g organ
- Biokinetics: Spleen (MDA-MB-231 tumor [2]): 0.27 ± 0.07 % injected dose/g organ
- Biokinetics: Stomach (MDA-MB-231 tumor [2]): 8.43 ± 1.08 % injected dose
- Biokinetics: Tumor (MDA-MB-231 tumor [2]): 1.56 ± 0.17 % injected dose/g organ
- Tumor/blood (MDA-MB-231 tumor [2]): 5.51 ± 0.78
- Tumor/muscle (MDA-MB-231 tumor [2]): 2.46 ± 0.39
SMILES: NS(=O)(=O)c1nn2cc(-c3ccc(NC(=O)CN4CCN(CC(=O)O)CCN(CC(=O)Nc5ccc(-c6cn7nc(S(N)(=O)=O)sc7n6)cc5)CCN(CC(=O)O)CC4)cc3)nc2s1.[111In+3] [[^111In]ITDA2, [^111In]indium(III)2,2′-(4,10-bis(2-oxo-2-((4-(2-sulfamoylimidazo[2,1-b][1,3,4]thiadiazol-6-yl)phenyl)amino)ethyl)-1,4,7,10-tetraazacyclododecan-1,7-diyl) diacetic acid]

- Accumulation of radioactivity: Blood (HT-29-transplanted tumor; 1 hour after administration): 0.09 ± 0.01 % ID/g
- Accumulation of radioactivity: Brain (HT-29-transplanted tumor; 1 hour after administration): 0.27 ± 0.05 % ID/g
- Accumulation of radioactivity: HT-29 tumor (HT-29-transplanted tumor; 1 hour after administration): 1.60 ± 0.16 % ID/g
- Accumulation of radioactivity: Heart (HT-29-transplanted tumor; 1 hour after administration): 6.91 ± 0.32 % ID/g
- Accumulation of radioactivity: Intestines (HT-29-transplanted tumor; 1 hour after administration): 8.33 ± 0.44 % ID/g
- Accumulation of radioactivity: Kidney (HT-29-transplanted tumor; 1 hour after administration): 95.81 ± 9.44 % ID/g
- Accumulation of radioactivity: Liver (HT-29-transplanted tumor; 1 hour after administration): 8.42 ± 1.42 % ID/g
- Accumulation of radioactivity: Lungs (HT-29-transplanted tumor; 1 hour after administration): 3.58 ± 0.86 % ID/g
- Accumulation of radioactivity: Muscle (HT-29-transplanted tumor; 1 hour after administration): 2.47 ± 0.45 % ID/g
- Accumulation of radioactivity: Pancreas (HT-29-transplanted tumor; 1 hour after administration): 14.89 ± 3.20 % ID/g
- Accumulation of radioactivity: Spleen (HT-29-transplanted tumor; 1 hour after administration): 0.13 ± 0.20 % ID/g
- Accumulation of radioactivity: Stomach (HT-29-transplanted tumor; 1 hour after administration): 1.80 ± 0.27 % ID
- Tumor/blood (HT-29-transplanted tumor; 1 hour after administration): 18.89 ± 2.68
- Tumor/muscle (HT-29-transplanted tumor; 1 hour after administration): 0.66 ± 0.09
- Accumulation of radioactivity: Blood (HT-29-transplanted tumor; 4 hours after administration): 0.06 ± 0.01 % ID/g
- Accumulation of radioactivity: Brain (HT-29-transplanted tumor; 4 hours after administration): 0.26 ± 0.04 % ID/g
- Accumulation of radioactivity: HT-29 tumor (HT-29-transplanted tumor; 4 hours after administration): 1.71 ± 0.28 % ID/g
- Accumulation of radioactivity: Heart (HT-29-transplanted tumor; 4 hours after administration): 2.87 ± 0.36 % ID/g
- Accumulation of radioactivity: Intestines (HT-29-transplanted tumor; 4 hours after administration): 7.2 ± 1.53 % ID/g
- Accumulation of radioactivity: Kidney (HT-29-transplanted tumor; 4 hours after administration): 80.09 ± 5.11 % ID/g
- Accumulation of radioactivity: Liver (HT-29-transplanted tumor; 4 hours after administration): 6.51 ± 1.50 % ID/g
- Accumulation of radioactivity: Lungs (HT-29-transplanted tumor; 4 hours after administration): 2.24 ± 0.44 % ID/g
- Accumulation of radioactivity: Muscle (HT-29-transplanted tumor; 4 hours after administration): 1.88 ± 0.13 % ID/g
- Accumulation of radioactivity: Pancreas (HT-29-transplanted tumor; 4 hours after administration): 6.2 ± 0.78 % ID/g
- Accumulation of radioactivity: Spleen (HT-29-transplanted tumor; 4 hours after administration): 0.04 ± 0.03 % ID/g
- Accumulation of radioactivity: Stomach (HT-29-transplanted tumor; 4 hours after administration): 0.83 ± 0.11 % ID
- Tumor/blood (HT-29-transplanted tumor; 4 hours after administration): 28.6 ± 3.24
- Tumor/muscle (HT-29-transplanted tumor; 4 hours after administration): 0.92 ± 0.15
- Accumulation of radioactivity: Blood (HT-29-transplanted tumor; 24 hours after administration): 0.06 ± 0.01 % ID/g
- Accumulation of radioactivity: Brain (HT-29-transplanted tumor; 24 hours after administration): 0.33 ± 0.07 % ID/g
- Accumulation of radioactivity: HT-29 tumor (HT-29-transplanted tumor; 24 hours after administration): 3.02 ± 0.37 % ID/g
- Accumulation of radioactivity: Heart (HT-29-transplanted tumor; 24 hours after administration): 2.00 ± 0.38 % ID/g
- Accumulation of radioactivity: Intestines (HT-29-transplanted tumor; 24 hours after administration): 11.11 ± 0.85 % ID/g
- Accumulation of radioactivity: Kidney (HT-29-transplanted tumor; 24 hours after administration): 70.19 ± 9.28 % ID/g
- Accumulation of radioactivity: Liver (HT-29-transplanted tumor; 24 hours after administration): 4.92 ± 1.01 % ID/g
- Accumulation of radioactivity: Lungs (HT-29-transplanted tumor; 24 hours after administration): 1.20 ± 0.15 % ID/g
- Accumulation of radioactivity: Muscle (HT-29-transplanted tumor; 24 hours after administration): 1.63 ± 0.79 % ID/g
- Accumulation of radioactivity: Pancreas (HT-29-transplanted tumor; 24 hours after administration): 3.85 ± 0.68 % ID/g
- Accumulation of radioactivity: Spleen (HT-29-transplanted tumor; 24 hours after administration): 0.08 ± 0.05 % ID/g
- Accumulation of radioactivity: Stomach (HT-29-transplanted tumor; 24 hours after administration): 0.48 ± 0.04 % ID
- Tumor/blood (HT-29-transplanted tumor; 24 hours after administration): 52.06 ± 6.11
- Tumor/muscle (HT-29-transplanted tumor; 24 hours after administration): 2.08 ± 0.67
- Amount of tumor accumulation compared with [^111In]ITDA1 (HT-29-transplanted tumor; from Table 5): lower than that of [^111In]ITDA1
- Amounts of accumulation in normal tissues (in particular, pancreas, stomach, intestines, and lungs) (HT-29-transplanted tumor; from Table 5): small
SMILES: NS(=O)(=O)c1nn2cc(-c3ccc(NC(=O)CCC(C(=O)O)N4CCN(CC(=O)[O-])CCN(CC(=O)[O-])CCN(CC(=O)[O-])CC4)cc3)nc2s1.[111In+3] (centres unmarked) [[^111In]ITDA3]
